“Also recorded” adds a separate entry of the source.
Key:
supragingival biofilm = assay: 70/30 supragingival biofilm model, biofilm decontamination with antimicrobial solutions (Experiments 1 and 2); format: cell-based; settings: for lasting biofilm inhibiting effect, recovery of the microorganisms after 24 h (CFU, FIG. 7) / immediate decontaminating effect compared to the saline control (CFU, FIG. 7): Experiment 1, chlorhexidine 0.2%, hydrogen peroxide 3%; for immediate decontaminating effect compared to the saline control (CFU, FIG. 7): after dip, sodium hypochlorite 3%; for biofilm microbiota after 24 h (CFU, FIG. 8) / immediate effect on the biofilm microbiota (CFU, FIG. 8): hydrogen peroxide 0.1% and 1%; for immediate effect on the biofilm microbiota (CFU, FIG. 8): immediately after application, sodium hypochlorite 0.1%, 1% and 3%, detection limit <2.0E1; for CFU 24 hours after cleaning agent treatment (summary, FIG. 3b) / CFU immediately after cleaning agent treatment (summary, FIG. 3a): supragingival model, experiments 1 and 2; for CFU immediately after cleaning agent treatment (summary, FIG. 3a): immediate
Excerpt: Evaluation of biofilm decontamination with various antimicrobial solutions Tested in a 70/30 supragingival biofilm model For a detailed description of the biofilm model used in this experiment, see e.g. Guggenheim et al., 2004, 2001 a; and Shapiro et al., 2002 and Guggenheim et al., 2009. […]

subgingival biofilm = subgingival biofilm model on titanium discs, antimicrobial solutions alone, total CFU (Experiment 3); format: cell-based; settings: for reduction of the microbiota on the biofilms compared with the saline controls immediately after exposure (total CFU, FIG. 13): immediately after 1 min exposure, NaCIO 0.1% and 1%
Excerpt: (§1) Evaluation of subgingival biofilm decontamination with various antimicrobial solutions tested in a subgingival biofilm model For a detailed description of the biofilm model used in this experiment, see e.g. Guggenheim et al., 2004, 2001 a; and Shapiro et al., 2002 and Guggenheim et al., 2009. OMZ 278, Prevotella intermedia OMZ 493, Veilonella dispar OMZ 598, Fusobacterium nucleatum OMZ 607, Streptococcus oralis OMZ 661, Treponema denticola OMZ 698, Campylobacter rectus OMZ 745, Actinomyces oris OMZ 871, Streptococcus anginosus OMZ 925, Porphyromonas gingivalis OMZ 1047, Tannerella forsythia [table] The purpose of the present biofilm experiment was to assess the efficacy of various antimicrobial solutions on a subgingival microbiota associated with periodontitis and implantitis. The antimicrobial effect was evaluated immediately and 24 h after a 1 min exposure to the test solutions to biofilms grown on titanium discs.

[1] = tested on: individual members of the biofilm consortium; assay: subgingival biofilm model, antimicrobial solutions alone, effect on individual species (Experiment 3); format: cell-based; settings: NaCIO 0.1% and 1%; for P. intermedia and P. gingivalis in the following 24 h (re-growth): 24 h after treatment; for immediate effect on individual species (FIGS. 9, 10 and 11): all species, immediately after 1 min exposure
Excerpt: as §1

[2] = cited from earlier work
skin = settings: 2% solution; cited from earlier work

Structure (SMILES) | immediate decontaminating effect compared to the saline control (CFU, FIG. 7) (supragingival biofilm) | biofilm microbiota after 24 h (CFU, FIG. 8) (supragingival biofilm; Experiment 2, 24 h after dip) | immediate effect on the biofilm microbiota (CFU, FIG. 8) (supragingival biofilm; Experiment 2) | CFU 24 hours after cleaning agent treatment (summary, FIG. 3b) (supragingival biofilm) | CFU immediately after cleaning agent treatment (summary, FIG. 3a) (supragingival biofilm) | reduction of the microbiota on the biofilms compared with the saline controls immediately after exposure (total CFU, FIG. 13) (subgingival biofilm; Experiment 3) | immediate effect on individual species (FIGS. 9, 10 and 11) [1] | further results
OO [H2O2, hydrogen peroxide] | very modest | re-established to the level of the controls | low decontaminating action |  |  |  |  | lasting biofilm inhibiting effect, recovery of the microorganisms after 24 h (CFU, FIG. 7) (supragingival biofilm; 24 h after dip): no or minute lasting biofilm inhibiting action
OCl [NaCIO, Sodium hypochlorite] | very impressive |  |  | no sustained effect on its own | reduces CFU counts the most; also recorded: strong immediate CFU reduction | near or to the detection limit | near or to the detection limit | immediate effect on the biofilm microbiota (CFU, FIG. 8) (supragingival biofilm; Experiment 2, listed as sodium hypochlorite): below the detection level; CFU immediately after cleaning agent treatment (summary, FIG. 3a) (subgingival biofilm; subgingival model, experiment 3, immediate): strong immediate CFU reduction; P. intermedia and P. gingivalis in the following 24 h (re-growth) [1]: eradication
OCl [3.0% sodium hypochlorite, Sodium hypochlorite] |  | no detectable microorganisms | no detectable microorganisms |  |  |  |  | 
[Na+].[O-]Cl [0.1% NaCIO, Sodium hypochlorite] |  | in part recovered |  | bacterial regrowth |  |  |  | 
[H]/N=C(\N/C(=N/[H])NCCCCCCNC(=N)NC(=N)Nc1ccc(Cl)cc1)Nc1ccc(Cl)cc1 [CHX, Chlorhexidine] | very modest |  |  |  |  |  |  | lasting biofilm inhibiting effect, recovery of the microorganisms after 24 h (CFU, FIG. 7) (supragingival biofilm; 24 h after dip): strong lasting effect; strong sustained effect on the total CFU after 24 h / biofilm re-growth (subgingival biofilm; Experiment 3, 24 h after 1 min exposure): not observed
N=C(NCCCCCCNC(=N)NC(=N)Nc1ccc(Cl)cc1)NC(=N)Nc1ccc(Cl)cc1.O=C(O)[C@H](O)[C@@H](O)[C@H](O)[C@H](O)CO.O=C(O)[C@H](O)[C@@H](O)[C@H](O)[C@H](O)CO [CHX gluconate, Chlorhexidine gluconate] |  |  |  |  |  |  |  | solubility in water [2]: water-soluble
[H]/N=C(\N/C(=N/[H])NCCCCCCNC(=N)NC(=N)Nc1ccc(Cl)cc1)Nc1ccc(Cl)cc1 [0.2% CHX, Chlorhexidine] |  |  | low immediate effect | clear CFU reduction | no significant immediate CFU influence |  |  | reduction of the biofilm microbiota after 24 h (supragingival biofilm; Experiment 2, 24 h after dip): ~6 log steps
[H]/N=C(\N/C(=N/[H])NCCCCCCNC(=N)NC(=N)Nc1ccc(Cl)cc1)Nc1ccc(Cl)cc1 [2% chlorhexidine, chlorhexidine] |  |  |  |  |  |  |  | skin irritation (skin): irritating to the skin
[H]/N=C(\N/C(=N/[H])NCCCCCCNC(=N)NC(=N)Nc1ccc(Cl)cc1)Nc1ccc(Cl)cc1 [1% CHX, Chlorhexidine] |  | eradicating totally the biofilm microbiota |  | clear CFU reduction | no significant immediate CFU influence | only a limited effect | only a limited effect | P. intermedia and P. gingivalis in the following 24 h (re-growth) [1]: eradication
OO [3% H2O2, hydrogen peroxide] |  |  |  |  |  | only a limited effect | only a limited effect | 

Source: US20200375864A1, “PERIODONTAL DISEASE TREATMENT” (STRAUMANN HOLDING AG, priority 2013, published 2020)
